Source: patent publication US20090069320A1, “Substituted 4-Amino-Quinazoline Compounds with Metabotropic Glutamate Receptor Regulating Activity and Uses Thereof” (Gruenenthal GmbH, priority 2006, published 2009)
Where a name gives a salt, the structure may show the parent alone.

target: T1, mGluR5 receptor (Sus scrofa, UniProt I3LUI7); assay: [3H]-MPEP mGluR5 receptor binding assay (pig brain homogenate); conditions: 5 nM [3H]-MPEP, read-out: IC50 mGluR5 Receptor (pig) [^3H]-MPEP Bond
T1 construct: 450 μg of protein from brain homogenate with 5 nM ^3[H]-MPEP; from tissue; host or cells: pig brain halves without medulla, cerebellum and pons
In short: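 Compounds at 10 μM competed with 5 nM [3H]-MPEP for binding to pig brain membranes (450 μg protein) for 60 min at room temperature in pH 8.0 Hepes buffer. Bound radioactivity was collected on glass-fibre filters and read by β-counting, with 10 μM unlabelled MPEP giving non-specific binding.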

T1 sequence (I3LUI7 19-1212): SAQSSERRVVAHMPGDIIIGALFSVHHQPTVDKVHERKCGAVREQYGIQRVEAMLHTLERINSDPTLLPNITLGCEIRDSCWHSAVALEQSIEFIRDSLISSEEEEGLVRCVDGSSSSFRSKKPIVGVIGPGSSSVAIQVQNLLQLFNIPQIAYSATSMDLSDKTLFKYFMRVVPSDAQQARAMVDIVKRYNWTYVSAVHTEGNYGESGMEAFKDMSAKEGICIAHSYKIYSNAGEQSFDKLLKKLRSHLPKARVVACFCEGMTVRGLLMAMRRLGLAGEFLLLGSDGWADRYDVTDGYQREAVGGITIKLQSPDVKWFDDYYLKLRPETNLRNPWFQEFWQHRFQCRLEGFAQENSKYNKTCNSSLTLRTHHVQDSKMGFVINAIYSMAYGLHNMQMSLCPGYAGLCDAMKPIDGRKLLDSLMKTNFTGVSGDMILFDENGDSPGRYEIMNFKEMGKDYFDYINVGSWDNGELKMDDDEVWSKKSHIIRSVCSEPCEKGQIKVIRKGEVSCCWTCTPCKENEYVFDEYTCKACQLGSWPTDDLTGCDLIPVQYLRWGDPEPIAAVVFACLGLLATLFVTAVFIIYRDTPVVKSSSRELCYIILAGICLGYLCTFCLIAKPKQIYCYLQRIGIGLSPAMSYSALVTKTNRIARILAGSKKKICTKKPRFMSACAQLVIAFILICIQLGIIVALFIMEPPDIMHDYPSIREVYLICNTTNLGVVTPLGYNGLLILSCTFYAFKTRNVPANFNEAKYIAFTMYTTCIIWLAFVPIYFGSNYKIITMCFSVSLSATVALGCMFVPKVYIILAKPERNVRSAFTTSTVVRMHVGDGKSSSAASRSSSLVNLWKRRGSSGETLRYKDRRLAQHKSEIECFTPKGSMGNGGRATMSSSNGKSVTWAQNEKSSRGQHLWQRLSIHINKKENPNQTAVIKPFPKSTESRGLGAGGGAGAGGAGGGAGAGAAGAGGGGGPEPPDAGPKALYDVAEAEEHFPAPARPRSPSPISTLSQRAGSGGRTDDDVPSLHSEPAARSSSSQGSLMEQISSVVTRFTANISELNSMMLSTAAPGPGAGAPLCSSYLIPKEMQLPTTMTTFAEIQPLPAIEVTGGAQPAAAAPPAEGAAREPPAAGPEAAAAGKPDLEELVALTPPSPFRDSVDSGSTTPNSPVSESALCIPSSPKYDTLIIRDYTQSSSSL

IC50 [µM]	Compound
4.25	O=C1CCC(c2ccccc2)C(=O)N1Cc1cccc(-c2ccc3ncnc(NC4CC4)c3c2)c1 (stereo not drawn) [Example 220, 1-[3-(4-cyclopropylamino-quinazolin-6-yl)-benzyl]-3-phenyl-piperidine-2,6-dione; hydrochloride]
0.5	COC(=O)C(=O)N(Cc1cccc(-c2ccc3ncnc(NC4CC4)c3c2)c1)C1CC1 [Example 238, N-cyclopropyl-N-[3-(4-cyclopropylamino-quinazolin-6-yl)-benzyl]-methyl oxalate]
1.52	O=C(Cc1ccccc1)N(Cc1cccc(-c2ccc3ncnc(NC4CC4)c3c2)c1)C1CC1 [Example 264, N-cyclopropyl-N-[3-(4-cyclopropylamino-quinazolin-6-yl)-benzyl]-2-phenyl-acetamide]
0.12	CC(=O)N(Cc1cccc(-c2cc(F)c3ncnc(NC4CC4)c3c2)c1)C1CC1 [Example 716, N-cyclopropyl-N-(3-(4-(cyclopropylamino)-8-fluoroquinazolin-6-yl)benzyl)acetamide]
0.02	O=C1CCC(=O)N1Cc1cccc(-c2cc(Cl)c3ncnc(NC4CC4)c3c2)c1 [Example 881, 1-(3-(8-chloro-4-(cyclopropylamino)quinazolin-6-yl)benzyl)pyrrolidine-2,5-dione]
6.92	CC(=O)N(CCc1ccccc1)Cc1cccc(-c2ccc3ncnc(NC4CC4)c3c2)c1 [Example 214, N-[3-(4-cyclopropylamino-quinazolin-6-yl)-benzyl]-N-phenethyl-acetamide]

same assay, conditions: 10 μM compound, 5 nM [3H]-MPEP

% Inhibition of mGluR5 Receptor (pig) [^3H]-MPEP Bond at 10 μM [%]	Compound
94	CC(=O)N(Cc1cc(-c2ccc3ncnc(NC(C)(C)C)c3c2)ccc1F)C1CC1 [Example 844, N-(5-(4-(tert-butylamino)quinazolin-6-yl)-2-fluorobenzyl)-N-cyclopropyl acetamide]
97	O=S(=O)(c1c(F)c(F)c(F)c(F)c1F)N(Cc1cc(-c2ccc3ncnc(NC4CC4)c3c2)ccc1Cl)C1CC1 [Example 802, N-(2-chloro-5-(4-(cyclopropylamino)quinazolin-6-yl)benzyl)-N-cyclopropyl-2,3,4,5,6-pentafluorobenzole sulfonamide]

same assay, conditions: 10 μM compound, 5 nM [3H]-MPEP, read-out: % Inhibition of mGluR5 Receptor (pig) [^3H]-MPEP Bond at 10 μM

inhibition at 10 µM [%]	Compound
89	CC(C)(C)Nc1ncnc2ccc(-c3ccc(F)c(CN(C(=O)c4ccccc4C(F)(F)F)C4CC4)c3)cc12 [Example 814, N-(5-(4-(tert-butylamino)quinazolin-6-yl)-2-fluorobenzyl)-N-cyclopropyl-2-(trifluoromethyl)benzamide]
89	Cc1cc2ncnc(NC3CC3)c2cc1-c1cccc(CN(C(=O)c2ccncc2)C2CC2)c1 [Example 707, N-cyclopropyl-N-(3-(4-(cyclopropylamino)-7-methylquinazolin-6-yl)benzyl)isonicotinamide]
46	CCCN(Cc1cccc(-c2ccc3ncnc(Nc4ccccc4)c3c2)c1)C(=O)c1ccc(O)nc1 [Example 111, 6-hydroxy-N-[3-(4-phenylamino-quinazolin-6-yl)-benzyl]-N-propyl-nicotinamide]
54	CCCN(Cc1cccc(-c2ccc3ncnc(Nc4ccccc4)c3c2)c1)C(=O)c1ccc(C)cc1 [Example 91, 4-methyl-N-[3-(4-phenylamino-quinazolin-6-yl)-benzyl]-N-propyl-benzamide]
62	O=C(c1c(F)c(F)c(F)c(F)c1F)N(Cc1cccc(-c2cc(F)c3ncnc(NC4CC4)c3c2)c1)C1CC1 [Example 752, N-cyclopropyl-N-(3-(4-(cyclopropylamino)-8-fluoroquinazolin-6-yl)benzyl)-2,3,4,5,6-pentafluorobenzamide]
81	O=C(c1cc(Cl)cc(Cl)c1)N(Cc1cc(-c2ccc3ncnc(NC4CC4)c3c2)ccc1F)C1CC1 [Example 421, 3,5-dichloro-N-cyclopropyl-N-(5-(4-(cyclopropylamino)quinazolin-6-yl)-2-fluorobenzyl)benzamide]
84	O=C(c1cnccn1)N(Cc1cccc(-c2ccc3ncnc(NC4CC4)c3c2)c1)C1CC1 [Example 162, pyrazine-2-carboxylic acid cyclopropyl-[3-(4-cyclopropylamino-quinazolin-6-yl)-benzyl]-amide]
94	CN(c1ncnc2ccc(-c3ccc(F)c(CN(C(=O)c4ccco4)C4CC4)c3)cc12)C1CC1 [Example 420, N-cyclopropyl-N-(5-(4-(cyclopropyl(methyl)amino)quinazolin-6-yl)-2-fluorobenzyl)furan-2-carboxamide]
30	CN(C)CC(=O)N(Cc1cccc(-c2ccc3ncnc(NC4CC4)c3c2)c1)C1CC1 [Example 173, N-cyclopropyl-N-[3-(4-cyclopropylamino-quinazolin-6-yl)-benzyl]-2-dimethylamino-acetamide]
39	CN(C)CC(=O)N(Cc1cc(-c2ccc3ncnc(NC4CC4)c3c2)ccc1Cl)C1CC1 [Example 733, N-(2-chloro-5-(4-(cyclopropylamino)quinazolin-6-yl)benzyl)-N-cyclopropyl-2-(dimethylamino)acetamide]
41	CS(=O)(=O)N(Cc1cncc(-c2ccc3ncnc(NC4CC4)c3c2)c1)C1CC1 [Example 234, N-cyclopropyl-N-[5-(4-cyclopropylamino-quinazolin-6-yl)-pyridin-3-yl-methyl]-methane sulfonamide]
86	Cc1cc2ncnc(NC3CC3)c2cc1-c1cccc(CN(C(=O)c2cccnc2)C2CC2)c1 [Example 702, N-cyclopropyl-N-(3-(4-(cyclopropylamino)-7-methylquinazolin-6-yl)benzyl)nicotinamide]
47	Cc1ccc(C(=O)N(Cc2ccccc2)Cc2cccc(-c3ccc4ncnc(NC(C)C)c4c3)c2)cc1 [Example 54, N-benzyl-N-[3-(4-isopropylamino-quinazolin-6-yl)-benzyl]-4-methyl-benzamide]
52	CCCN(Cc1cccc(-c2ccc3ncnc(Nc4ccccc4)c3c2)c1)C(=O)c1ccccc1 [Example 89, N-[3-(4-phenylamino-quinazolin-6-yl)-benzyl]-N-propyl-benzamide]
51	COc1ccc(C(=O)N(Cc2cccc(-c3ccc4ncnc(N5CCCC5)c4c3)c2)C2CC2)cc1 [Example 142, N-cyclopropyl-4-methoxy-N-[3-(4-pyrrolidin-1-yl-quinazolin-6-yl)-benzyl]-benzamide]
52	Cc1cc2ncnc(NC3CC3)c2cc1-c1cccc(CN(C(=O)c2ccno2)C2CC2)c1 [Example 745, N-cyclopropyl-N-(3-(4-(cyclopropylamino)-7-methylquinazolin-6-yl)benzyl)isoxazole-5-carboxamide]
62	CNc1ncnc2ccc(-c3ccc(F)c(CN(C)S(=O)(=O)Cc4ccccc4)c3)cc12 [Example 586, N-(2-fluoro-5-(4-(methylamino)quinazolin-6-yl)benzyl)-N-methyl-1-phenylmethane sulfonamide]
81	CC(C)(C)Nc1ncnc2ccc(-c3ccc(F)c(CN(C(=O)c4cccc(C(F)(F)F)c4)C4CC4)c3)cc12 [Example 808, N-(5-(4-(tert-butylamino)quinazolin-6-yl)-2-fluorobenzyl)-N-cyclopropyl-3-(trifluoromethyl)benzamide]
90	CCCCC(=O)N(Cc1cccc(-c2cc3c(NC4CC4)ncnc3cc2C)c1)C1CC1 [Example 715, N-cyclopropyl-N-(3-(4-(cyclopropylamino)-7-methylquinazolin-6-yl)benzyl)pentanamide]
30	CCN(CC)c1ncnc2ccc(-c3cccc(CN(C)C(=O)Cc4ccccn4)c3)cc12 [Example 68, N-[3-(4-diethylamino-quinazolin-6-yl)-benzyl]-N-methyl-2-pyridin-2-yl-acetamide]
66	O=C(Cc1ccccc1)N(Cc1cc(-c2ccc3ncnc(NC4CC4)c3c2)ccc1Cl)C1CC1 [Example 748, N-(2-chloro-5-(4-(cyclopropylamino)quinazolin-6-yl)benzyl)-N-cyclopropyl-2-phenylacetamide]
32	CCN(CC)c1ncnc2ccc(-c3cccc(CN(C)C(=O)c4ccc(C)cc4)c3)cc12 [Example 75, N-[3-(4-diethylamino-quinazolin-6-yl)-benzyl]-4,N-dimethyl-benzamide]
66	CC(C)Nc1ncnc2ccc(-c3cccc(CN(Cc4ccccc4)C(=O)c4ccncc4)c3)cc12 [Example 151, N-benzyl-N-[3-(4-isopropylamino-quinazolin-6-yl)-benzyl]-isonicotinamide]
60	CNc1ncnc2ccc(-c3cccc(CN(C(=O)c4cccc(F)c4)c4ccccc4F)c3)cc12 [Example 687, 3-fluoro-N-(2-fluorophenyl)-N-(3-(4-(methylamino)quinazolin-6-yl)benzyl)benzamide]
34	CC(C)S(=O)(=O)N(Cc1cccc(-c2ccc3ncnc(NCCc4ccccc4)c3c2)c1)C1CC1 [Example 818, N-cyclopropyl-N-(3-(4-(phenethylamino)quinazolin-6-yl)benzyl)propane-2-sulfonamide]
65	Cc1cccc(CNc2ncnc3ccc(-c4cccc(CN(C(=O)CN(C)C)C5CC5)c4)cc23)c1 [Example 726, N-cyclopropyl-2-(dimethylamino)-N-(3-(4-(3-methylbenzylamino)quinazolin-6-yl)benzyl)acetamide]
60	CN(C)CC(=O)N(Cc1cccc(-c2ccc3ncnc(NCCc4ccccc4)c3c2)c1)C1CC1 [Example 417, N-cyclopropyl-2-(dimethylamino)-N-(3-(4-(phenethylamino)quinazolin-6-yl)benzyl)acetamide]
59	O=C(c1ccncc1)N(Cc1cccc(-c2ccc3ncnc(NCCc4ccccc4)c3c2)c1)C1CC1 [Example 377, N-cyclopropyl-N-(3-(4-(phenethylamino)quinazolin-6-yl)benzyl)isonicotinamide]
